Results published in patent publication US11970494B2, “6-heteroaryloxy benzimidazoles and azabenzimidazoles as JAK2 inhibitors” (Ajax Therapeutics, Inc., priority 2021, dated 2024).

Key:
[1] = Hepatocyte Stability Assay, rat hepatocytes; format: in vitro ADME; details: cryopreserved hepatocytes, read-out: Rat Heps CLint
Procedure: (§1) 10 mM stock solutions of test compound and positive control are prepared in DMSO. Stock solutions are diluted to 100 μM by combining 198 μL of 50% acetonitrile/50% water and 2 μL of 10 mM stock solution. Verapamil is used as positive control in the assay. Vials of cryopreserved hepatocytes are thawed in a 37° C. water bath with gently shaking. The contents are poured into the 50 mL thawing medium conical tube. Vials are centrifuged at 100 g for 10 minutes at room temperature. Thawing medium is aspirated and hepatocytes are re-suspended with serum-free incubation medium to yield ˜1.5×10^6 cells/mL. Cell viability and density are counted using a Trypan Blue exclusion, and then cells are diluted with serum-free incubation medium to a working cell density of 0.5×10^6 viable cells/mL. A portion of the hepatocytes at 0.5×10^6 viable cells/mL are boiled for 5 min prior to adding to the plate as negative control to eliminate the enzymatic activity so that little or no substrate turnover should be observed. Aliquots of 198 μL hepatocytes are dispensed into each well of a 96-well non-coated plate. The plate is placed in the incubator for approximately 10 minutes. Aliquots of 2 μL of the 100 μM test compound and 2 μL positive control are added into respective wells of a non-coated 96-well plate to start the reaction. The final concentration of test compound is 1 μM. This assay is performed in duplicate. The plate is incubated in the incubator for the designed time points. 25 μL of contents are transferred and mixed with 6 volumes (150 μL) of cold acetonitrile with internal standard (100 nM alprazolam, 200 nM labetalol, 200 nM caffeine and 200 nM diclofenac) to terminate the reaction at time points of 0, 15, 30, 60, 90 and 120 minutes. Samples are centrifuged for 25 minutes at 3,220 g and aliquots of 150 μL of the supernatants are used for LC-MS/MS analysis.

[2] = Hepatocyte Stability Assay, human hepatocytes; format: in vitro ADME; details: cryopreserved hepatocytes, read-out: Human Heps CLint
Procedure: as §1

[3] = target: T1, JAK2 (JH1 domain-catalytic, Y1007F,Y1008F) kinase (Homo sapiens, UniProt O60674, Y1007F/Y1008F); experiment: JAK2 Binding Assay (JAK2 JH1 Domain Binding Assay); details: JAK2 JH1 domain binding, qPCR detection; read-out: JAK2 Kd
T1 construct: made in house; host or cells: transiently transfected HEK293 cells

[4] = Caco2 Permeability Assay; format: in vitro ADME; details: human; for efflux ratio at 2 h, 5 μM: pH 7.4, Caco-2, 5 μM, read-out: Efflux Ratio (ER); for Papp A→B at 2 h, 5 μM: pH 7.4, Caco-2, apical to basolateral
Procedure: Preparation of Caco-2 Cells: 50 μL and 25 mL of cell culture medium are added to each well of a Transwell® insert and reservoir, respectively. Then, the HTS Transwell® plates are incubated at 37° C., 5% CO2 for 1 hour before cell seeding. Caco-2 cell cells are diluted to 6.86×10^5 cells/mL with culture medium, and 50 μL of cell suspension are dispensed into the filter well of the 96-well HTS Transwell® plate. Cells are cultivated for 14-18 days in a cell culture incubator at 37° C., 5% CO2, 95% relative humidity. Cell culture medium is replaced every other day, beginning no later than 24 hours after initial plating.
Preparation of Stock Solutions: 10 mM stock solutions of test compounds are prepared in DMSO. The stock solutions of positive controls are prepared in DMSO at the concentration of 10 mM. Digoxin and propranolol are used as control compounds in this assay.
Assessment of Cell Monolayer Integrity: Medium is removed from the reservoir and each Transwell® insert and is replaced with prewarmed fresh culture medium. Transepithelial electrical resistance (TEER) across the monolayer is measured using Millicell Epithelial Volt-Ohm measuring system (Millipore, USA). The Plate is returned to the incubator once the measurement is done. The TEER value is calculated according to the following equation: TEER measurement (ohms)×Area of membrane (cm^2)=TEER value (ohm⋅cm^2). A TEER value greater than 230 ohm⋅cm^2 indicates a well-qualified Caco-2 monolayer.
Assay Procedure: The Caco-2 plate is removed from the incubator and washed twice with pre-warmed HBSS (10 mM HEPES, pH 7.4), and then incubated at 37° C. for 30 minutes. The stock solutions of control compounds are diluted in DMSO to get 1 mM solutions and then diluted with HBSS (10 mM HEPES, pH 7.4) to get 5 μM working solutions. The stock solutions of the test compounds are diluted in DMSO to get 1 mM solutions and then diluted with HBSS (10 mM HEPES and 4% BSA, pH 7.4) to get 5 μM working solutions. The final concentration of DMSO in the incubation system is 0.5%. To determine the rate of drug transport in the apical to basolateral direction. 75 μL of 5 μM working solutions of test compounds are added to the Transwell® insert (apical compartment) and the wells in the receiver plate (basolateral compartment) are filled with 235 μL of HBSS (10 mM HEPES and 4% BSA, pH 7.4). To determine the rate of drug transport in the basolateral to apical direction, 235 μL of 5 μM working solutions of test compounds are added to the receiver plate wells (basolateral compartment) and then the Transwell® inserts (apical compartment) are filled with 75 μL of HBSS (10 mM HEPES and 4% BSA, pH 7.4). Time 0 samples are prepared by transferring 50 μL of 5 μM working solution to wells of the 96-deepwell plate, followed by the addition of 200 μL cold methanol containing appropriate internal standards (IS). The plates are incubated at 37° C. for 2 hours. At the end of the incubation, 50 μL samples from donor sides (apical compartment for Ap→*Bl flux, and basolateral compartment for Bl→Ap) and receiver sides (basolateral compartment for Ap→Bl flux, and apical compartment for Bl→Ap) are transferred to wells of a new 96-well plate, followed by the addition of 4 volume of cold acetonitrile or methanol containing appropriate internal standards (IS). Samples are vortexed for 5 minutes and then centrifuged at 3,220 g for 40 minutes. An aliquot of 100 μL of the supernatant is mixed with an appropriate volume of ultra-pure water before LC-MS/MS analysis. To determine the Lucifer Yellow leakage after 2 hour transport period, stock solution of Lucifer yellow is prepared in ultra-pure water and diluted with HBSS (10 mM HEPES, pH 7.4) to reach the final concentration of 100 μM. 100 μL of the Lucifer yellow solution is added to each Transwell® insert (apical compartment), followed by filling the wells in the receiver plate (basolateral compartment) with 300 μL of HBSS (10 mM HEPES, pH 7.4). […]

T1 sequence (O60674 849-1124 Y1007F/Y1008F limits assumed): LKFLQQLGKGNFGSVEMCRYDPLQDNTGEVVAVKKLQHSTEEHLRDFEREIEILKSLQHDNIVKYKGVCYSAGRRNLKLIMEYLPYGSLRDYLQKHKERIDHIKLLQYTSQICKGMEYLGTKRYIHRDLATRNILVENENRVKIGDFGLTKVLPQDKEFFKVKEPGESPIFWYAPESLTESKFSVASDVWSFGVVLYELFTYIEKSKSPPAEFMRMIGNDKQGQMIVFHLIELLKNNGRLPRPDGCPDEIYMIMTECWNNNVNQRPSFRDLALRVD

Row | CLint scaled at 1 μM [1] [L/h/kg] | CLint scaled at 1 μM [2] [L/h/kg] | Kd [3] [µM] | efflux ratio at 2 h, 5 μM [4] | Papp A→B at 2 h, 5 μM [4] [nm/s] | SMILES
1 | 2.1 to 2.7 | 0.36 to 0.72 | < 0.01 | ≤ 2 | 40 | CC(=O)Nc1cc(Oc2cnc3nc(Nc4cc5n(n4)CCCC54CC4)n(C)c3c2C#N)ccn1 [Example I-114, N-(4-((7-cyano-2-((6′,7′-dihydro-5′H-spiro[cyclopropane-1,4′-pyrazolo[1,5-a]pyridin]-2′-yl)amino)-1-methyl-1H-imidazo[4,5-b]pyridin-6-yl)oxy)pyridin-2-yl)acetamide]
2 | < 1.02 | ≤ 0.36 | < 0.01 | 2 to 5 | 40 | CO[C@H]1CCN(C(=O)Nc2cc(Oc3cnc4nc(Nc5cc(C(F)(F)F)cn(C)c5=O)n(C)c4c3C#N)ccn2)C1 [Example I-14, (S)-N-(4-((7-cyano-1-methyl-2-((1-methyl-2-oxo-5-(trifluoromethyl)-1,2-dihydropyridin-3-yl)amino)-1H-imidazo[4,5-b]pyridin-6-yl)oxy)pyridin-2-yl)-3-methoxypyrrolidine-1-carboxamide]
3 | 2.1 to 2.7 | 0.72 to 1.2 | < 0.01 | 10 to 30 | 4 | CCN1CCN(Cc2ccc(Nc3nc4ccc(Oc5ccnc(NC(C)=O)c5)cc4n3C)cc2C(F)(F)F)CC1 [Example R-1, reference compound]
4 | 1.02 to 2.1 | 0.36 to 0.72 | < 0.01 | 2 to 5 | 20 | Cn1cc(C(F)(F)F)cc(Nc2nc3ncc(Oc4ccnc(NC(=O)O[C@@H]5CCOC5)c4)c(C#N)c3n2C)c1=O [Example I-18, (R)-Tetrahydrofuran-3-yl(4-((7-cyano-1-methyl-2-((1-methyl-2-oxo-5-(trifluoromethyl)-1,2-dihydropyridin-3-yl)amino)-1H-imidazo[4,5-b]pyridin-6-yl)oxy)pyridin-2-yl)carbamate]
5 | < 1.02 | ≤ 0.36 | < 0.01 | 2 to 5 | 40 | Cn1cc(C(F)(F)F)cc(Nc2nc3ncc(Oc4ccnc(NC(=O)OCCN5CCOCC5)c4)c(C#N)c3n2C)c1=O [Example I-15, 2-Morpholinoethyl(4-((7-cyano-1-methyl-2-((1-methyl-2-oxo-5-(trifluoromethyl)-1,2-dihydropyridin-3-yl)amino)-1H-imidazo[4,5-b]pyridin-6-yl)oxy)pyridin-2-yl)carbamate]
6 | < 1.02 | 0.72 to 1.2 | < 0.01 | 2 to 5 | 20 | Cn1c(Nc2cc3n(n2)CCC32CCC2)nc2ncc(Oc3ccnc(NC(=O)C4CC4)c3)c(C#N)c21 [Example I-122, N-(4-((7-cyano-2-((5′,6′-dihydrospiro[cyclobutane-1,4′-pyrrolo[1,2-b]pyrazol]-2′-yl)amino)-1-methyl-1H-imidazo[4,5-b]pyridin-6-yl)oxy)pyridin-2-yl)cyclopropanecarboxamide]

Row | SMILES | CLint scaled at 1 μM [1] [L/h/kg] | CLint scaled at 1 μM [2] [L/h/kg] | Kd [3] [µM] | efflux ratio at 2 h, 5 μM [4] | Papp A→B at 2 h, 5 μM [4] [nm/s]
7 | CN(C)C(=O)Nc1cc(Oc2cnc3nc(Nc4cc5n(n4)CCC54CCC4)n(C)c3c2C#N)ccn1 [Example I-56, 3-(4-((7-cyano-2-((5′,6′-dihydrospiro[cyclobutane-1,4′-pyrrolo[1,2-b]pyrazol]-2′-yl)amino)-1-methyl-1H-imidazo[4,5-b]pyridin-6-yl)oxy)pyridin-2-yl)-1,1-dimethylurea] | 1.02 to 2.1 | ≤ 0.36 | < 0.01 | ≤ 2 | 50
8 | CN(C)C(=O)Nc1cc(Oc2cnc3nc(Nc4cc(C(F)(F)F)cn(C)c4=O)n(C)c3c2C#N)ccn1 [Example I-4, 3-(4-((7-cyano-1-methyl-2-((1-methyl-2-oxo-5-(trifluoromethyl)-1,2-dihydropyridin-3-yl)amino)-1H-imidazo[4,5-b]pyridin-6-yl)oxy)pyridin-2-yl)-1,1-dimethylurea] | 1.02 to 2.1 | ≤ 0.36 | < 0.01 | 2 to 5 | 70
9 | COC(=O)Nc1cc(Oc2cnc3nc(Nc4cc(C(F)(F)F)cn(C)c4=O)n(C)c3c2C#N)ccn1 [Example I-3, Methyl (4-((7-cyano-1-methyl-2-((1-methyl-2-oxo-5-(trifluoromethyl)-1,2-dihydropyridin-3-yl)amino)-1H-imidazo[4,5-b]pyridin-6-yl)oxy)pyridin-2-yl)carbamate] | < 1.02 | ≤ 0.36 | < 0.01 | ≤ 2 | 120
